Here are results for two molecules from patent publication EP0389368B1, “New derivatives of 6-(1-piperazinyl) 2,5-pyridine diamine N,N,N',N'-substituted, procedure for their production and intermediates, their use as medicines and pharmaceutical preparations containing them” (priority 1989, dated 1990).

Assay [1] concerns péroxydation lipidique. Briefly: MDA formation test, non-enzymatic lipid peroxidation triggered by ferrous sulfate/ascorbate in rat liver microsomes. It counts as biochemical, rat S.D. Conditions: FeSO4/ascorbate, 15 min 37°C. The text has this: (§1) L'activité antioxydante est recherchée, in vitro, par le test de formation de la malonyldialdéhyde (MDA) qui mesure la péroxydation lipidique déclenchée : soit a) de façon non enzymatique par le sulfate ferreux, dans • 1) des homogénats de cerveau ou • 2) des microsomes hépatiques de rat soit b) de façon enzymatique par NADPH et le tétrachlorure de carbone, dans des microsomes hépatiques de rat. 1.1 : La formation de MDA est mesurée sur des homogénats au 1/10^e (V/V) de cerveaux de rat S.D (200 g) préparés dans un tampon de Krebs pH 7,4 selon les conditions décrites dans J. Biol. Chem. 262 (1987) 10438-10440. On incube 1 ml d'homogénat pendant 60 mn à 37°C en présence de 25 microlitres d'éthanol contenant ou non le produit à tester, après addition de 25 microlitres de solution de sulfate ferreux préparée extemporanément dans de l'eau dégazée à l'argon (200 micromoles final). On prélève 0,25 ml de mélange incubé et ajoute 1,5 ml d'acide phosphorique à 1 %, 0,25 ml de solution 200 micromoles de déféroxamine (Desféral^R Ciba Geigy) dans l'eau, 10 microlitres de tert-butylhydroxytoluène (BHT) à 8,7 mg/ml dans l'éthanol et 0,5 ml d'acide thiobarbiturique (TBA) à 0,6 % dans l'eau. On chauffe le mélange à 100°C pendant 45 mn, refroidit, ajoute 4 ml de n-butanol, centrifuge pendant 15 mn à 4000 t/mn puis lit la DO à 535 nm de la fraction surnageante. On incube dans les mêmes conditions les blancs de réaction en absence de Fe++. On calcule le pourcentage d'inhibition : pourcentage d'inhibition =(DO en présence de produit)/(DO en absence de produit) [formula] Résultats :
1.2 : La formation de MDA est mesurée sur des microsomes hépatiques de rat S.D (200 g) préparés à partir de la fraction sédimentée à 100.000 g d'un homogénat de foie dans un tampon sucrose dont on utilise la fraction restant insoluble à 100.000 g dans un tampon de pyrophosphate de sodium 100 mM pH 7,4 et que l'on homogénéise dans un tampon phosphate de sodium 100 mM pH 7,4 à 20 % de glycérol, puis que l'on conserve à -80°C. On incube les microsomes pendant 15 mn à 37°C dans 1 ml contenant du tampon Tris-HCl 35 mM, KCl 0,1 M pH 7,4, 1 mg de protéine microsomale, 5 microlitres d'éthanol renfermant ou non le produit à tester, 250 microlitres de solution d'ascorbate dans le tampon Tris (0,5 mM final), après l'addition de 250 microlitres de sulfate ferreux préparée extemporanément dans le tampon Tris (6 micromoles final). On arrête la réaction par addition de 2 ml d'une solution d'acide trichloracétique 1 M dans l'acide chlorhydrique 0,25 M contenant 0,4 % d'acide thiobarbiturique. On chauffe le mélange à 85°C pendant 25 mn, refroidit, centrifuge pendant 15 mn à 3500 t/mn puis lit la DO à 535 nm de la fraction surnageante. On effectue en même temps les blancs de réaction en absence de Fe++. On calcule le pourcentage d'inhibition comme précédemment.
A general note: Liver microsomes are vesicles of endoplasmic reticulum, rich in cytochrome P450 enzymes.

The test system of assay [2] is péroxydation lipidique. Briefly: MDA formation test, non-enzymatic lipid peroxidation triggered by ferrous sulfate in rat brain homogenates. Format: biochemical, rat S.D. Conditions: rat brain homogenate, FeSO4, 60 min 37°C.
Source text: as §1, with “[formula]” for “[formula] Résultats :”

Assay [3] concerns oedème plantaire provoqué par l'acide arachidonique. Description: Arachidonic acid-induced paw oedema test (anti-oedema activity). Format: in vivo, rats mâles EOPS de souche Sprague Dawley. The note with it: rat; for Variation de volume de la patte 1 heure après AA: ** p < 0,01 (Dunnett). The text has this:
L'activité anti-inflammatoire est évaluée in vivo par mesure de l'activité anti-oedémateuse à l'aide du test de l'oedème plantaire provoqué par l'acide arachidonique décrit par M.J. Di Martino et al. (Agents and Actions 1987 21 3/4 303).
Les animaux d'expérimentation sont des rats mâles EOPS de souche Sprague Dawley pesant 150-170 g (Iffa Credo).
Ce test est pratiqué sur des groupes de 8 rats mâles pesant 130 à 150 g à jeun depuis 16 heures. L'acide arachidonique est injecté sous l'aponévrose plantaire d'une patte postérieure à la dose de 0,2 mg sous un volume de 0,1 ml. Le volume de la patte est mesuré à l'aide d'un pléthysmomètre à eau, avant et 1 heure après l'injection de l'acide arachidonique. La différence entre ces deux volumes représente le degré d'inflammation. Les animaux sont traités par les produits à étudier ou le véhicule seul en même temps que l'injection de l'acide arachidonique.
Les produits étudiés ont été administrés par voie orale sous un volume de 4 ml/kg après avoir été mis en suspension dans la méthylcellulose à 0,5%. Toutes les expériences ont été réalisées avec comme produit de référence la dexaméthasone à la dose de 0,5 mg/kg par voie orale.
Les résultats sont exprimés en variation de volume de la patte 1 heure après l'injection d'acide arachidonique (AA), en absence ou en présence du produit à tester administré à différentes doses.
L'interprétation statistique des résultats a été effectuée selon le test de Dunnett (* p < 0,05 - ** p < 0,01) ou selon le test de Mann Whitney (° p < 0,05 - °° p < 0,01).
Pour chaque dose administrée par voie orale, on calcule le pourcentage d'inhibition de l'oedème par le produit testé, par rapport au témoin.

In assay [4] the test system is péroxydation lipidique. Description: MDA formation test, enzymatic lipid peroxidation triggered by NADPH and carbon tetrachloride in liver microsomes of phenobarbital-pretreated rats. It counts as biochemical. Conditions: rat liver microsomes (phenobarbital-pretreated), NADPH + CCl4, 15 min 37°C.
Source text: as §1
2 : La formation de MDA est mesurée sur des microsomes hépatiques de rats prétraités au phénobarbital (80 mg/kg par 3 injections i.p), préparés comme décrit précédemment. On incube les microsomes pendant 15 mn à 37°C dans 1 ml contenant du tampon phosphate 0,1 M pH 7,4, 1 mg de protéine microsomale, 5 microlitres d'éthanol renfermant ou non le produit à tester, 5 microlitres de tétrachlorure de carbone (5,5 mM final) après l'addition de 50 microlitres de solution de NADPH dans le tampon phosphate (1 mM final). On arrête la réaction puis effectue le dosage selon les conditions décrites précédemment.

As to `CCN(CC)c1ccc(N(CC)CC)c(N2CCNCC2)n1` [Produit de l'ex. 1, N,N,N′,N′-tétraéthyl 6-(1-pipérazinyl) 2,5-pyridine diamine], the “pourcentage d'inhibition” value in assay [1] (1.10^-5M, 10 µM) is recorded as 99,4 pourcentage; in assay [1] (1.10^-6M, 1 µM), 44,0 pourcentage; in assay [1] (5.10^-6M, 5 µM), 99,4 pourcentage; in assay [2] (1.10^-4M, 100 µM), 67,4 ± 8,6 pourcentage; in assay [2] (1.10^-5M, 10 µM), 60,3 ± 9,1 pourcentage; in assay [2] (5.10^-4M, 500 µM), 74,2 ± 3,8 pourcentage. In addition, the “pourcentage d'inhibition” value is 96 ± 1 pourcentage in assay [4] (1.10^-5M, 10 µM); 43 ± 3 pourcentage in assay [4] (1.10^-6M, 1 µM); 93 ± 0,2 pourcentage in assay [4] (5.10^-6M, 5 µM). The “Variation de volume de la patte 1 heure après AA” value in assay [3] (dose 20 mg/kg oral) is recorded as 0,33 ± 0,06** cm3.

As for `CCN(CC)c1ccc(N(CC)CC)c(N2CCN(CC(=O)[C@H]3[C@H](C)C[C@H]4[C@@H]5CCC6=CC(=O)C=C[C@]6(C)C5=CC[C@@]43C)CC2)n1` [Produit de l'ex. 2, 21-[4-[3,6-bis(diéthylamino) 2-pyridyl] 1-pipérazinyl] 16alpha-méthyl pregna-1,4,9(11)-triène-3,20-dione], the “pourcentage d'inhibition” value is given as 99,8 pourcentage in assay [1] (1.10^-5M, 10 µM); 42,0 ± 5 pourcentage in assay [1] (1.10^-6M, 1 µM); 99,5 pourcentage in assay [1] (5.10^-6M, 5 µM); 55,6 ± 1,3 pourcentage in assay [2] (1.10^-4M, 100 µM); 63,8 ± 4,3 pourcentage in assay [2] (1.10^-5M, 10 µM); 60,4 ± 4,4 pourcentage in assay [2] (5.10^-4M, 500 µM). For the same molecule, the “pourcentage d'inhibition” value in assay [4] (1.10^-5M, 10 µM) is given as 91 ± 1 pourcentage; in assay [4] (1.10^-6M, 1 µM) it was 49 ± 1,5 pourcentage; in assay [4] (5.10^-6M, 5 µM) it was 88 ± 1 pourcentage. The entries for the “Variation de volume de la patte 1 heure après AA” value in assay [3] (dose 0,5 mg/kg oral) and in assay [3] (dose 1 mg/kg oral) were 0,32 ± 0,04** cm3 and 0,32 ± 0,01** cm3, respectively. Besides, in assay [3] (result in words, from the dose of 0,5 mg/kg oral), the activité anti-inflammatoire entry is “forte activité”.
